Experimental data taken from patent EP0243336A1, “Pharmaceutical compositions for the treatment of intermittent claudication” (U C B, S.A., priority 1986, dated 1987).

Columns and labels:
[1] = system: patients présentant une artériopathie oblitérante périphérique aux stades cliniques IIa et IIb; assay: Clinical trial: hemorheological parameters (blood fluidity, erythrocyte aggregation); type: in vivo; settings: after treatment; piracétam given together with HES 200
Description: Parallèlement au traitement, on a déterminé avant et après celui-ci la fluidité du sang des patients étudiés.
Cet exemple décrit un essai clinique effectué sur deux groupes A et B de 9 patients présentant une artériopathie oblitérante périphérique aux stades cliniques IIa et IIb. […] En outre, la fluidité du sang de ces patients était trés limitée.
Dans les deux groupes de patients, on a également suivi l'évolution de divers paramètres hémorhéologiques.

[2] = system: patients présentant une artériopathie oblitérante périphérique aux stades cliniques IIa et IIb; assay: Clinical trial: pain-free walking distance on treadmill before and after six weeks of isovolemic then hypervolemic hemodilution; type: in vivo
Description: Cet exemple décrit un essai clinique effectué sur deux groupes A et B de 9 patients présentant une artériopathie oblitérante périphérique aux stades cliniques IIa et IIb. Tous ces patients présentaient des oblitérations d'un ou plusieurs jours ou des microangiopathies des membres inférieurs. En outre, la fluidité du sang de ces patients était trés limitée.
Les patients du groupe A (âge moyen: 60 ans) reçoivent un traitement combiné par dilution isovolémique et dilution hypervolémique au moyen de HES 200 (poids moléculaire 200.000) et de piracétam.
A cet effet, en 4 à 5 séances, on prélève chaque fois 500 ml de sang que l'on remplace par une perfusion isovolémique de 500 ml d'une solution aqueuse stérile à 10% de HES 200 contenant 12 g de piracétam. Le rapport en poids entre le HES 200 et le piracétam est donc de 4,1 : 1.
Entre chaque séance de perfusion isovolémique s'écoule un intervalle de 2 à 3 jours pendant lequel les patients reçoivent 12 g de piracétam par jour sous forme d'une suspension buvable.
Ensuite, on administre trois fois par semaine, en perfusion hypervolémique, 500 ml de la solution à 10% de HES 200 contenant 12 g de piracétam.
Le groupe B constitue le groupe témoin et les patients de ce groupe (âge moyen: 60 ans) reçoivent le même traitement, mais sans addition de piracétam.

NC(=O)CN1CCCC1=O [piracétam, 2-oxo-1-pyrrolidineacétamide]
fluidité du sang [1]: la meilleure
temps de claudication et douleurs ([2]; 12 g piracétam added to 500 ml of 10% HES 200): nette diminution
distance moyenne de marche sans douleur ([2]; 12 g piracétam added to 500 ml of 10% HES 200, versus the same without piracétam): augmente de manière trés significative
